{
  "source": "paper PMC8820820",
  "about": "“Feasibility and safety of targeting mitochondria for cancer therapy – preclinical characterization of gamitrinib, a first-in-class, mitochondriaL-targeted small molecule Hsp90 inhibitor” (Cancer Biology & Therapy, 2022)",
  "key": {"Kir2.1": {"target": "T1, Kir2.1 (Homo sapiens, UniProt P63252)", "T1 sequence (P63252 1-427)": "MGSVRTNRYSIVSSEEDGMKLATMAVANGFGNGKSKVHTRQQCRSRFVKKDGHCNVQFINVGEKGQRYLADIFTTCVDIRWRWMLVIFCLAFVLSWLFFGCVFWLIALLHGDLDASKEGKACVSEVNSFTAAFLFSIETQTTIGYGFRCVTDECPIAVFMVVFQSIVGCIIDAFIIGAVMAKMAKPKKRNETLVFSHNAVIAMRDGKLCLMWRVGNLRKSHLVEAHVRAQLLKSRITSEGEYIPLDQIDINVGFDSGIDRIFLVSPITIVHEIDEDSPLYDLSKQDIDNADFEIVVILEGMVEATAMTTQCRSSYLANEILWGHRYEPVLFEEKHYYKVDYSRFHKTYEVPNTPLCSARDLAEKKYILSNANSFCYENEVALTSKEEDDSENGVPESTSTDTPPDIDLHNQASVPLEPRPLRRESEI", "experiment": "Ion channel screening", "format": "cell-based", "conditions": "10 µM, pulse 10", "description": "Ion channel screening. […] Human Kir2.1 currents were evoked from a holding potential of -20 mV by a series of 10 500 msec pulses to -120 mV using a 200 msec interval between pulses. The parameters measured were the amplitudes of the instantaneous inward currents evoked on stepping to -120 mV for the 1st pulse and the maximum inward current at the end of the 10th hyperpolarizing pulse. For all experiments, data were filtered for seal quality, seal drop, and current amplitude."}, "NCI 60 cell-line screen": {"test_system": "NCI 60 cell-line screen", "parameters": "method as in PMID 20876793, PMID 21285984", "conditions": "read-out: IC50, anticancer activity, cited from earlier work"}, "CYP1A2": {"target": "T2, CYP1A2 (Homo sapiens, UniProt P05177)", "T2 construct": "tissue Bioreclamation IVT; host or cells: pooled human liver microsomes", "T2 sequence (P05177 1-516)": "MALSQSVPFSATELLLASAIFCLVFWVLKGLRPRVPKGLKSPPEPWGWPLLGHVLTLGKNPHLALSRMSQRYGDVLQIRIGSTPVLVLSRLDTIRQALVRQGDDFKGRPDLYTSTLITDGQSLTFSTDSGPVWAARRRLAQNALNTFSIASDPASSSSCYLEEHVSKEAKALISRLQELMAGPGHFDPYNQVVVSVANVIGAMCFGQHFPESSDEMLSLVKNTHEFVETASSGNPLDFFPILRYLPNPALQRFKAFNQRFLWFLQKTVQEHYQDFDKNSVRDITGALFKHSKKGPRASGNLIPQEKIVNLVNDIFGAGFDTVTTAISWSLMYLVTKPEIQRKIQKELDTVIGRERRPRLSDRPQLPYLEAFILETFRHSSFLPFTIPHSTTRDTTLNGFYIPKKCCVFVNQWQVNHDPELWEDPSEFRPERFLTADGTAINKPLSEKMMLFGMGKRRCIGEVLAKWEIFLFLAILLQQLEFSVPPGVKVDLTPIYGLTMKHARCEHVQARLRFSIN", "experiment": "CYP inhibition in liver microsomes", "format": "in vitro ADME", "from_the_text": "CYP inhibition in liver microsomes."}, "[1]": {"experiment": "Phase I, cytochrome P450-mediated human liver microsome metabolism", "conditions": "0.5 µM, human liver microsomes"}, "beagle dogs": {"test_system": "beagle dogs", "experiment": "Toxicity in beagle dogs", "format": "in vivo", "procedure": "Eighteen male and female (5–6 mo old) purebred beagle dogs (Cumberland, VA) were acclimated for 47 d (20°C to 26°C, relative humidity 30–70%, 10 or greater air changes/h, and a 12-h light/dark cycle) prior to study initiation. Animals were given water ad libitum and Certified Canine Diet #5007 (PMI Nutrition International Certified LabDiet®) for 4 to 5 h each day. At study initiation, animal body weights ranged from 8.6 to 11.5 kg for males and 6.0 to 9.4 kg for females. At least 1 week prior to initiation of dosing, animals were fasted overnight, anesthetized, and a catheter attached to a subcutaneous vascular access port was surgically implanted into a jugular vein. Animals were acclimated to infusion jackets prior to catheter implantation surgery. Animals were infused with sterile saline at a dose rate of 5 mL/h when the vascular access ports were accessed and when animals were connected to the infusion system (except when dosed with the test or vehicle control article). The patency of each catheter was checked as needed. Prednisolone tablets were administered orally at 2 mg/kg the night prior to dosing. Diphenhydramine (5 mg/kg; IM injection 0.1 mL/kg, 50 mg/mL) was administered prior to dosing and post the start of infusion (d 1 only). Male and female dogs received dose levels of Gamitrinib of 1.25, 3.33 and 6.25 mg/kg/dose formulated as indicated above during a 1 h infusion on d 1, 8, 11, 15, 18, 22, 25, 29, 32, and 36 at a volume of 2 mL/kg. The vehicle control was as above. […] Dosing was stopped, and 23 of 24 animals were administered additional diphenhydramine, 11 were administered Flunixin meglumine and buprenorphine, and 6 were administered acepromazine. Symptoms subsided in all animals after completion of these interventions. As a result of these observations, the polysorbate levels, which were increased from 0.025% (w/v) to 0.125% (w/v) to minimize precipitation, were returned to the original concentrations; 2 mg/kg prednisone was administered orally the night prior to dosing; and the diphenhydramine pretreatment dose was updated to 5 mg/kg 15 to 30 min prior to dosing. Detailed observations were conducted for each animal up to seven times during the predose phase, prior to dosing on d 1, 8, 15, 22, 29, and 36 of the dosing phase, and on d 1, 7, and 14 of the recovery phase. Blood samples (1 mL) were collected via the cephalic vein 5, 15, and 30 min and 1, 4, 8, and 24 h post the end of infusion on d 8 and 36 of the dosing phase. Formalin-fixed and paraffin-embedded tissue samples collected at the end of the study (d 39) were processed for histologic examination."}, "Kv1.5": {"target": "Kv1.5 (Homo sapiens, UniProt P22460)", "sequence (P22460 whole entry)": "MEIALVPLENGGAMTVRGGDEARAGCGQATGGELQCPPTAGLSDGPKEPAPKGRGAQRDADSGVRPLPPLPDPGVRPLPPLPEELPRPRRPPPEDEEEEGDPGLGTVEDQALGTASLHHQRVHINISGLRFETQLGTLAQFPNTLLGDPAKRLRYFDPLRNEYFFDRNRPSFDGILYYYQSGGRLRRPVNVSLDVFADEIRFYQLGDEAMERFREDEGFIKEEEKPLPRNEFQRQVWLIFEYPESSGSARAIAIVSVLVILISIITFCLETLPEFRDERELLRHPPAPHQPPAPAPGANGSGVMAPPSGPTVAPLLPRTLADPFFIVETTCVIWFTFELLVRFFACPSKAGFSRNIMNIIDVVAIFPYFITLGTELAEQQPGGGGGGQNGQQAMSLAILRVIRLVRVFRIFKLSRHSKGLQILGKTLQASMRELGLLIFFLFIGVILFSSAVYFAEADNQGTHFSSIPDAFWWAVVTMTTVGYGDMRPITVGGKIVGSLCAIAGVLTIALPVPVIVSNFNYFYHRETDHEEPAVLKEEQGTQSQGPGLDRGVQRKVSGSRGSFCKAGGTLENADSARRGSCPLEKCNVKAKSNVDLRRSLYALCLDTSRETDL", "experiment": "Ion channel screening", "format": "cell-based", "conditions": "10 µM", "description": "Ion channel screening. […] The parameters measured were the maximum inward current evoked on stepping to -20 mV from the 1st and 26th pulse. Human Kv4.3/KChIP2 currents were evoked from a holding potential of -80 mV by a series of four 500 msec pulses to 0 mV using a 1000 msec interval between pulses. The parameter measured was the amplitude of the outward current 50 msec after the onset of the 4th voltage step to 0 mV. […] Human Kv1.5 currents were evoked by a single pulse from a holding potential of -80 mV to a potential of 0 mV for 4 sec before returning to -80 mV. The parameters measured were the maximum amplitude of outward currents evoked at the beginning of the voltage pulse and at the end of the voltage step from -80 mV to 0 mV. Human KCNQ1/minK currents were evoked by a single pulse delivered from a holding potential of -80 mV to +60 mV for 4 sec before returning to -80 mV. The parameter measured was the maximum outward current evoked on stepping to +60 mV from the holding potential of -80 mV. hERG currents were evoked by a three-pulse protocol where voltage was first stepped to +40 mV for two sec from a holding potential of –80 mV to inactivate hERG channels. […] The parameter measured was the maximum inward current evoked upon stepping to -110 mV from the holding potential of -30 mV. […]"}, "CYP2B6": {"target": "T3, CYP2B6 (Homo sapiens, UniProt P20813)", "T3 sequence (P20813 1-491)": "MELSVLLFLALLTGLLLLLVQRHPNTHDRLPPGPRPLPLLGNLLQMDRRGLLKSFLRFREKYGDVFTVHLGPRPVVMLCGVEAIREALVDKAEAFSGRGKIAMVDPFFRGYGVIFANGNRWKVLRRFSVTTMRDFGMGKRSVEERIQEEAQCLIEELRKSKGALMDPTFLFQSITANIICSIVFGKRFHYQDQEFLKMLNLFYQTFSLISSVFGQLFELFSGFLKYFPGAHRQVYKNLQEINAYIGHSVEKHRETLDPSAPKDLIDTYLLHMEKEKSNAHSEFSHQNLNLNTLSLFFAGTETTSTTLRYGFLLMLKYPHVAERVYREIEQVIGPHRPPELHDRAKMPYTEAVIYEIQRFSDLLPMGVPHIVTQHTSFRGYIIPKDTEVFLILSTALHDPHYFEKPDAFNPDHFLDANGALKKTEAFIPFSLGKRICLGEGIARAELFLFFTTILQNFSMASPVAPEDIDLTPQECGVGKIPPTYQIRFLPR", "conditions": "microsomes", "protocol": "CYP inhibition in liver microsomes. […] Samples were analyzed for metabolite formation by LC-MS/MS. The results were expressed using the peak area ratio of analyte to internal standard, based on the calibration curves.\nWhere Range=fitted uninhibited value, s=slope factor, x=inhibitor concentration, y=% control activity."}},
  "note": "pIC50: −log10 of the molar value. Read-outs that look alike come from different tables or passages of the source.",
  "data": [
    {"molecule": "COC1C=CC=C(C)C(=O)NC2=CC(=O)C(NCCCCCC[P+](c3ccccc3)(c3ccccc3)c3ccccc3)=C(CC(C)CC(OC)C(O)C(C)C=C(C)C1OC(N)=O)C2=O.F[P-](F)(F)(F)(F)F", "note": "(centres unmarked) [Gamitrinib]", "values": [
      {"measurement": "inhibition of Kir2.1 currents", "setting": "Kir2.1", "result": "−7.3 ± 3.4", "unit": "%"},
      {"measurement": "pIC50", "setting": "NCI 60 cell-line screen; NCI 60 cell-line screen, all lines", "result": "4.54 to 6.80"},
      {"measurement": "pIC50", "setting": "NCI 60 cell-line screen; breast adenocarcinoma cell lines", "result": "5.48 to 6.80"},
      {"measurement": "pIC50", "setting": "NCI 60 cell-line screen; colon adenocarcinoma cell lines", "result": "4.54 to 6.46"},
      {"measurement": "pIC50", "setting": "NCI 60 cell-line screen; melanoma cell lines", "result": "5.57 to 6.44"},
      {"measurement": "pIC50", "setting": "CYP1A2", "result": 4.48},
      {"measurement": "elimination rate constant (k)", "setting": "[1]", "result": 0.041},
      {"measurement": "half-life (t½)", "setting": "[1]", "result": 16.7, "unit": "min"},
      {"measurement": "intrinsic clearance (CLint)", "setting": "[1]", "result": 3.30, "unit": "mL/min/g"},
      {"measurement": "Bone marrow and liver parameters", "setting": "beagle dogs; dog, in vivo", "result": "unremarkable"},
      {"measurement": "organ weight", "setting": "beagle dogs; dog, in vivo", "result": "No Gamitrinib-related changes in organ weight"},
      {"measurement": "kidney microscopic findings", "setting": "beagle dogs; dog, in vivo, 6.25 mg/kg", "result": "slight to moderate kidney tubular degeneration/regeneration"},
      {"measurement": "serum urea nitrogen and creatinine", "setting": "beagle dogs; dog, in vivo, 6.25 mg/kg", "result": "trend of increased serum urea nitrogen and creatinine"},
      {"measurement": "NOAEL", "setting": "beagle dogs; dogs, IV for 36 d", "result": 3.33, "unit": "mg/kg/dose"},
      {"measurement": "highest non-severely toxic dose (HNSTD)", "setting": "beagle dogs; dogs, IV for 36 d", "result": 6.25, "unit": "mg/kg/dose"},
      {"measurement": "inhibition of Kv1.5 currents", "setting": "Kv1.5", "result": "6.6 ± 1.3", "unit": "%"},
      {"measurement": "pIC50", "setting": "CYP2B6", "result": 4.80}
    ]}
  ]
}
